# Data from patent US20220370366A1, “TABLETS CONTAINING CILOFEXOR AND PHARMACEUTICALLY ACCEPTABLE CARRIERS” (Gilead Sciences, Inc., priority 2019, published 2022).
# Columns and labels:
# [1] = Single dose PK (AUCinf) in Phase 1 studies, effect of drug load on Compound 1 exposure and variability; format: in vivo, human; details: for AUC(0-inf): human, in vivo, oral, fasted, healthy volunteers, read-out: Mean (% CV) Compound 1 AUCinf
# Text: Part A: prespecified cohorts (Cohorts 1-3): Randomized, partially blind, placebo-controlled, single- and multiple-doses with staggered dose-escalations. 60 unique subjects; 15 per cohort (12 Compound 1, 3 placebo-to-match (“PTM”))
# Part A (Single- and Multiple-Ascending Doses, Pre-Specified Cohorts) proceeded in 4 staggered, pre-specified, dose-escalation cohorts and were governed by study specific stopping criteria. Within each cohort, 15 unique subjects were randomized 4:1 to receive blinded Compound 1 (N=12) or PTM (N=3). All study drugs in Part A were administered in a fasted state. Within each cohort, dose escalation from single-dose (Period 1) to multiple-dose (Period 2) were permitted after evaluation of cumulative blinded safety data up to and through Day 3 of the same cohort.
# Fasted State Dosing: Study drug(s) were administered at approximately the same time each day following an overnight fast (no food or drinks except water, for at least 10 hours). Subjects continued to fast until after collection of the 2-hour PK sample, relative to study drug dosing.
# (§1) Treatment A: Single dose of SEL 18 mg (1×18 mg tablet)+Compound 1 30 mg (1×30 mg tablet) coadministered orally in the morning within 5 minutes of completing a high-fat meal Treatment C: Single dose of Compound 1 30 mg (1×30 mg tablet) administered orally in the morning in the fasted state
# (§2) Fasted Administration (Treatment C): Study drug(s) were administered in the morning following an overnight fast (no food or drinks except water for at least 10 hours). Subjects continued to fast until after collection of the 4-hour PK sample, relative to (first) study drug dosing. Additionally, subjects were restricted from water consumption 1 hour before until 2 hours after each study drug dosing, except for the 240 mL given with each study drug administration. Water may be consumed by subjects following the 2-hour blood draw for the remainder of the collection period. A meal (standardized lunch) was provided to subjects after the 4 hour postdose blood draw.
# Eligible subjects received the following treatment: Single dose of 100 mg Compound 1 (1×100 mg tablet), administered orally in the morning on Day 1 following an overnight fast.
# Each dose of study drug was administered in the morning on Day 1 with 240 mL of still (non-carbonated) water following an overnight fast (no food or drinks except water, for at least 10 hours). Subjects continued to fast and were restricted from food intake until after collection of the 4-hour blood draw. Additionally, subjects were restricted from consumption of water or other fluids 1 hour before until 2 hours after dosing, except for the 240 mL given with the study treatment.
# Cohort 10 (Compound 1 100 mg, formulation 9 in Table 3):
# Treatment F: Single dose of Compound 1 (1×100 mg tablet) administered orally in the morning in the fasted state.
# (§3) Compound 1 was administered in the morning following an overnight fast (no food or drinks except water for at least 10 hours). Subjects continued to fast until after collection of the 4-hour PK sample, relative to the (first) study drug dosing. Additionally, subjects were restricted from water consumption 1 hour before until 2 hours after each study drug dosing, except for the 240 mL given with each study drug administration. Water was optionally consumed by subjects following the 2-hour blood draw for the remainder of the collection period. A meal (standardized lunch) is provided to subjects after the 4-hour post-dose blood draw.
# Single dose pharmacokinetic exposure parameters (AUCinf) of Compound 1 from multiple Phase 1 studies in healthy volunteers which utilized various drug loads of Compound 1 were compared to determine if Compound 1 drug load impacted the variability and/or absolute value of Compound 1 systemic exposure.
# [2] = Effect of acid-reducing agent (famotidine) on PK of Compound 1 single agent tablet, Cohort 11; format: in vivo, human; details: for AUC(0-inf): human, in vivo, oral, fasted, N=20
# Method: The objective of Cohort 11 was to assess the effect of gastric acid reducing agents (ARAs) on the PK of Compound 1 single agent tablet using famotidine, a representative H2RA. Compound 1 100 mg strength tablets (as free form equivalent) were used. Famotidine was obtained from a commercially available source.
# Treatment J: Single dose of Compound 1 (1×100 mg tablet) administered orally in the morning in the fasted state.
# Treatment K: Single dose of Compound 1 (1×100 mg tablet) administered orally in the morning 2 hours after famotidine (FAM) (1×40 mg) in the fasted state.
# as §3, with “Study drug(s) were” for “Compound 1 was”, “period.” for “period. A meal (standardized lunch) is provided to subjects after the 4-hour post-dose blood draw.”
# [3] = Single dose PK (AUCinf) in Phase 1 studies, effect of meal type on Compound 1 exposure and variability; format: in vivo, human; details: for AUC(0-inf): human, in vivo, oral
# Method: Part B (Adaptive Cohorts) is as follows: Based on available safety, pharmacokinetic (“PK”), and/or pharmacodynamic (“PD”) data from Part A, total daily doses for Part B (Cohorts 5 and 8) were chosen between 1 and 600 mg as well as frequency of dosing (once daily or twice a day) and meal conditions for dosing (fasted, low fat, moderate fat, or high fat meal). Once determined, dose level, frequency of dosing, and meal conditions were consistent within a cohort.
# Fed State Dosing: Study drug(s) were administered at approximately the same time each day and within 5 minutes of completing a standardized meal. The meal was initiated 30 minutes prior to study drug administration. Subjects fasted until after collection of the 4-hour PK sample, relative to study drug dosing. Meal fat content (low fat, moderate fat, or high fat) was determined based on available data from […] cohorts.
# as §1
# Treatment I: Single dose of Compound 1 30 mg (1×30 mg tablet) administered orally in the morning within 5 minutes of completing a light meal
# as §2
# Light Meal Administration (Treatment I): Study drug(s) were administered with food and with 240 mL of water. Following an overnight fast (no food or drinks except water for at least 10 hours), a meal was initiated 30 minutes prior to study drug administration. The dose was administered at or within 5 minutes of the subjects completing (100%) of the provided light meal containing ˜400 kcal with ˜20% of the calories from fat. Subjects fasted for 4 hours after study drug administration. A meal (standardized lunch) was provided to subjects after the 4-hour post-dose blood draw. Additionally, water and other fluids was withheld 1 hour before until 2-hours after dose administration other than the water provided with dosing and beverages provided with the standardized meal (where applicable). Water may be consumed by subjects following the 2-hour blood draw for the remainder of the collection period.
# High-Fat Meal Administration (Treatment A): Study drug(s) were administered with food and with 240 mL of water. Following an overnight fast (no food or drinks except water for at least 10 hours), a meal was initiated 30 minutes prior to study drug administration. The dose was administered at or within 5 minutes of the subjects completing (100%) of the provided high-fat meal containing ˜800-1000 kcal with -50% of calories from fat (approximately 150, 250, and 500-600 kcal from protein, carbohydrate, and fat, respectively). Subjects fasted for 4 hours after study drug administration. A meal (standardized lunch) was provided to subjects after the 4-hour post-dose blood draw. Additionally, water and other fluids was withheld 1 hour before until 2 hours after dose administration other than the water provided with dosing and beverages provided with the standardized meal (where applicable). Water may be consumed by subjects following the 2-hour blood draw for the remainder of the collection period.
# Cohort 10 (Compound 1 100 mg, formulation 9 in Table 3): […]
# [4] = in the drug product, Form I
# [5] = drug loads such as 5% and 8% compared to 20% drug load
structure (smiles),measurement,setting,value
"O=C(O)c1ccnc(N2CC(O)(c3ccc(OCc4c(-c5c(Cl)cccc5Cl)noc4C4CC4)cc3Cl)C2)c1 [Compound 1, cilofexor]",Compound 1 exposure,[1]; [5],increased Compound 1 exposure
same,Variability of Compound 1 exposure,[1]; [5],reduction in variability
same,AUC(0-inf),"[1]; 30 mg, 30 mg single dose, 5% drug load",2470 ng·h/mL
same,AUC(0-inf),"[1]; 30 mg, 30 mg single dose, 20% drug load",1870 ng·h/mL
same,AUC(0-inf),"[1]; 100 mg, 100 mg single dose, 8% drug load",7480 ng·h/mL
same,AUC(0-inf),"[1]; 100 mg, 100 mg single dose, 12% drug load",7650 ng·h/mL
same,AUC(0-inf),"[1]; 100 mg, 100 mg single dose, 20% drug load",7740 ng·h/mL
same,% GLSM Ratio (90% CI),"[2]; 100 mg (12% drug load), AUCinf with famotidine vs alone","320 (263, 390) %"
same,Bioavailability of Compound 1 with famotidine pre-treatment,"[2]; administered two hours after famotidine, 12% drug load",increase in bioavailability
same,AUC(0-inf),"[2]; 100 mg (12% drug load), 2 hours after famotidine 40 mg, read-out: Compound 1 AUCinf (% CV) with Famotidine (Test)",13600 ng·h/mL
same,AUC(0-inf),"[2]; 100 mg (12% drug load), read-out: Compound 1 AUCinf (% CV) Alone (Reference)",4490 ng·h/mL
same,% GLSM Ratio (90% CI),"[3]; 10 mg (5% drug load), AUCinf moderate-fat meal vs fasted",74.9%
same,% GLSM Ratio (90% CI),"[3]; 30 mg (20% drug load), AUCinf high-fat meal (+ SEL 18 mg) vs fasted",142%
same,% GLSM Ratio (90% CI),"[3]; 30 mg (20% drug load), AUCinf light-fat meal vs fasted",37.5%
same,% GLSM Ratio (90% CI),"[3]; 100 mg (12% drug load), AUCinf high-fat meal vs fasted",91.9%
same,% GLSM Ratio (90% CI),"[3]; 100 mg (12% drug load), AUCinf light-fat meal vs fasted",65.7%
same,% GLSM Ratio (90% CI),"[3]; 100 mg (20% drug load), AUCinf moderate-fat meal vs fasted",76.6%
same,Effect of food on Compound 1 exposure,[3]; high-fat meal,increasing
same,AUC(0-inf),"[3]; 10 mg, 10 mg (5% drug load), fasted, N=12, read-out: Compound 1 AUCinf (% CV) Fasted",1260 ng·h/mL
same,AUC(0-inf),"[3]; 10 mg, 10 mg (5% drug load), moderate-fat meal, N=11, read-out: Compound 1 AUCinf (% CV) Fed",924 ng·h/mL
same,AUC(0-inf),"[3]; 30 mg (20% drug load), high-fat meal, + SEL 18 mg, N=20, read-out: Compound 1 AUCinf (% CV) Fed",1920 ng·h/mL
same,AUC(0-inf),"[3]; 30 mg, 30 mg (20% drug load), fasted, N=20, read-out: Compound 1 AUCinf (% CV) Fasted",1870 ng·h/mL
same,AUC(0-inf),"[3]; 30 mg, 30 mg (20% drug load), light-fat meal, N=30, read-out: Compound 1 AUCinf (% CV) Fed",608 ng·h/mL
same,AUC(0-inf),"[3]; 100 mg, 100 mg (12% drug load), fasted, N=20, read-out: Compound 1 AUCinf (% CV) Fasted",7650 ng·h/mL
same,AUC(0-inf),"[3]; 100 mg, 100 mg (12% drug load), high-fat meal, N=20, read-out: Compound 1 AUCinf (% CV) Fed",5930 ng·h/mL
same,AUC(0-inf),"[3]; 100 mg, 100 mg (12% drug load), light-fat meal, N=20, read-out: Compound 1 AUCinf (% CV) Fed",4170 ng·h/mL
same,AUC(0-inf),"[3]; 100 mg, 100 mg (20% drug load), fasted, N=12, read-out: Compound 1 AUCinf (% CV) Fasted",7740 ng·h/mL
same,AUC(0-inf),"[3]; 100 mg, 100 mg (20% drug load), moderate-fat meal, N=12, read-out: Compound 1 AUCinf (% CV) Fed",5020 ng·h/mL
same,Effect of food on Compound 1 exposure,[3]; light-fat and moderate-fat meals,reducing
same,Variability of Compound 1 exposure,[3]; light-fat meal,did not reduce variability
same,Variability of Compound 1 exposure,"[3]; moderate- and high-fat meals compared to fasted administration, irrespective of % drug load",reduced the variability
same,"Paired comparison of Compound 1 exposure, percent change with high-fat meal",[3]; subjects with low exposure fasted or with light-fat meal vs subjects with high exposure,greater percent increases in exposure
NC(CO)(CO)CO.O=C(O)c1ccnc(N2CC(O)(c3ccc(OCc4c(-c5c(Cl)cccc5Cl)noc4C4CC4)cc3Cl)C2)c1 [tromethamine salt of Compound 1],Chemical and physical stability,[4],suitable chemical and physical stability
